# Data published in article PMC7516806, “Hybrid Antimicrobial Peptide Targeting Staphylococcus aureus and Displaying Anti-infective Activity in a Murine Model” (Frontiers in Microbiology, 2020).
# Positions of bridges follow the written chain, without caps; N, C: chain ends. Residues, ends and D or L forms follow the SMILES beside them.
# Experiments:
# [1] = Systemic toxicity after intraperitoneal injection; type: in vivo, mice; conditions: 100 μL
# Protocol: The mice were inoculated by intraperitoneal injection with 100 μL of S2 (80 MIC), and saline was used as the control. Signs of animal distress and changes in body weight were closely monitored. After five days, all the mice were euthanized, and the blood biochemistry parameters were determined ([Mishra et al., 2019]).
# S. aureus 29213 [2] = assay: MIC, modified microtiter dilution; type: cell-based, Staphylococcus aureus; conditions: MHB, 2–7 × 10^5 CFU/ml, 37°C, 24 h, no turbidity, at least three independent repeats
# Source text: (§1) The experiment was repeated at least three times independently.
# S. aureus 25923 = assay: MIC, modified microtiter dilution; type: cell-based, Staphylococcus aureus; conditions: MHB, 2–7 × 10^5 CFU/ml, 37°C, 24 h, no turbidity, at least three independent repeats
# Source text: as §1
# [3] = tested on: Staphylococcus aureus 29213; assay: Propidium iodide uptake assay; type: cell-based; conditions: 0.5 × MIC, MIC and 2 × MIC; 10 μg/mL PI; ex 535 nm, em 617 nm
# Protocol: Staphylococcus aureus 29213 was washed three times with buffer (5 mM HEPES, 5 mM glucose, pH 7.4) after the bacterium grew to the mid-log phase and then diluted to an OD600 = 0.05. Propidium iodide was then added to the final concentration of 10 μg/mL and incubated for 30 min at 4°C. The peptides were added to 12-well plates, which were filled with 2 mL of the cell suspension. An F-4500 fluorescence spectrophotometer (Hitachi, Japan) was employed to measure the fluorescence value at an excitation wavelength of 535 nm and an emission wavelength of 617 nm. Maximal augmentation was monitored, and the fluorescence of the mixture of bacteria and dye served as the blank control ([Morita et al., 2015]).
# [4] = tested on: lipoteichoic acid (LTA) from S. aureus; assay: LTA binding, BODIPY-TR-cadaverine displacement; set-up: species or system Staphylococcus aureus; conditions: comparison among peptides, BC displacement
# Protocol: Peptides binding to LTA were assayed using the BC (Sigma, United States) displacement method ([Zorko and Jerala, 2008]). The final concentration of 50 μg/mL LTA from S. aureus was incubated with 5 μg/mL BC in Tris-HCl buffer (50 mM, pH 7.4) for 4 h in a shaking incubator at 37°C. The peptides were then serially diluted in Tris–HCl buffer, and an equal volume solution was added to the 96-well plates. The fluorescence was measured (excitation λ = 580 nm, emission λ = 620 nm) on a spectrofluorophotometer (Infinite 200 Pro, Tecan, China). The experiment was conducted three times independently.
# S. aureus 29213 [5] = assay: Cytoplasmic membrane depolarization, diSC3-5; type: cell-based, Staphylococcus aureus; conditions: 0.4 μM diSC3-5, 100 mM KCl, ex 622 nm, em 670 nm
# Protocol: The dye diSC3-5 was employed to assay cytoplasmic membrane depolarization activities ([Shao et al., 2018]). S. aureus 29213 was diluted to an OD600 = 0.05 after washing three times with buffer (5 mM HEPES, 5 mM glucose, pH 7.4) when the bacteria grew to mid-log phase. Then, diSC3-5 at a final concentration of 0.4 μM was added into the medium and incubated for 1–1.5 h. The final concentration of 100 mM KCl was then added to the solution for 15 min. The peptides were added to 12-well plates, which were filled with 2 mL of cell suspension. An F-4500 fluorescence spectrophotometer (Hitachi, Japan) was employed to measure the fluorescence value at an excitation wavelength of 622 nm and an emission wavelength of 670 nm. Maximal augmentation was monitored, and the fluorescence of the mixture of bacteria and dye served as the blank control.
# RAW 264.7 cells = assay: Cytotoxicity, MTT dye reduction assay; type: cell-based, murine
# Protocol: The cytotoxicity of peptides was determined by healthy human erythrocytes and the murine macrophage cell line RAW 264.7 via a hemolysis assay and MTT dye reduction assay, respectively ([Wang et al., 2018]). In the hemolysis assay, fresh hRBCs from healthy people were centrifuged for 5 min at 1,000 × g and then washed three times with PBS (pH = 7.2). The 100 μL erythrocyte suspension and peptides were incubated for 1.5 h in an incubator at 37°C. The 96-well plates were centrifuged at 1,000 × g for 5 min, and the supernatants were carefully aspirated. The absorbance at 570 nm indicated the leakage of hemoglobin. The hRBCs in the PBS sample was used as the negative control, and 0.1% Triton X-100 addition served as the positive control. In the MTT dye reduction assay, 1.0–2.0 × 10^5 cells were plated in 96-well plates and then treated with various concentrations of peptides for 4 h at 37°C in a 5% CO2 incubator. Subsequently, 50 μL of MTT was added to the plated cells at a final concentration of 0.5 mg/mL and incubated for 4 h. Then, the cells were centrifuged at 1000 × g for 5 min, and the supernatants were discarded. Formazan crystals were dissolved in 150 μL of DMSO, and the OD570 nm was measured using a microplate reader (TECAN GENios F129004; TECAN, Austria). The experiment was repeated three times independently.
# mouse skin = assay: Skin toxicity in vivo, TUNEL assay; set-up: species or system ICR mice; conditions: 100 μL at 80 × MIC injected into skin, 24 h
# Protocol: Anesthetized mice were shaved on their backs and disinfected. A total of 100 μL of S2 (80 × MIC) was injected into the skin. Equal volumes of saline and 100% DMSO were used as the negative and positive controls, respectively. The skin was removed from the injection sites for tissue processing after 24 h. OCT-embedded slides were stained using the DeadEnd^TM Fluorometric TUNEL System for the detection of apoptotic cells and counterstained with 4,6-diamidino-2-phenylindole (DAPI). Photographs were taken using a microscope ([Huang et al., 2011a]).
# S. pullorum 7913 = assay: MIC, modified microtiter dilution; type: cell-based, Salmonella pullorum; conditions: MHB, 2–7 × 10^5 CFU/ml, 37°C, 24 h, no turbidity, at least three independent repeats
# Source text: as §1
# [6] = mean, intraperitoneal 80 MIC, after five days
structure (smiles),measurement,setting,value
CC(C)C[C@H](NC(=O)[C@H](CC(C)C)NC(=O)[C@H](Cc1c[nH]c2ccccc12)NC(=O)[C@H](Cc1c[nH]c2ccccc12)NC(=O)[C@H](Cc1c[nH]c2ccccc12)NC(=O)[C@H](CCCNC(=N)N)NC(=O)[C@@H]1CSSC[C@H](N)C(=O)N[C@@H](C)C(=O)N[C@@H](CO)C(=O)N[C@@H](Cc2ccc(O)cc2)C(=O)N[C@@H](Cc2ccccc2)C(=O)N1)C(N)=O [Peptide S2] (H-CASYFCRWWWLL-NH2; disulfide 1-6; N-terminus assumed),blood parameters versus saline treatment group,"[1]; intraperitoneal, 80 MIC, after five days",unaltered
same,clinical signs of toxicity,"[1]; intraperitoneal, 80 MIC, monitored five days",no clinical signs indicative of toxicity
same,blood Cl-,[1]; [6],111.25 mmol/L
same,blood Creatinine,[1]; [6],12.4 µM
same,blood Glucose,[1]; [6],10.17 mmol/L
same,blood I.Phos.,[1]; [6],2.335 mmol/L
same,blood K+,[1]; [6],5.84 mmol/L
same,blood Na+,[1]; [6],149 mmol/L
same,blood Urea,[1]; [6],9.43 mmol/L
same,MIC S. aureus 29213,S. aureus 29213 [2],8 µM
same,MIC S. aureus 25923,S. aureus 25923,8 µM
same,PI uptake (PI fluorescence),[3],rapidly disrupted the bacterial membrane and caused PI uptake
same,relative binding capacity to LTA,[4],stronger binding capacity to LTA than S1 and S3
same,cytoplasmic membrane depolarization (diSC3-5 fluorescence),S. aureus 29213 [5],rapid fluorescence intensity increase
same,killing activity against RAW 264.7 cells,RAW 264.7 cells,no killing activity against RAW 264.7 cells
same,RAW 264.7 cell survival rate,"RAW 264.7 cells; highest concentration of 128 μM, 4 h, three independent repeats",105%
same,apoptotic cells in mouse skin (TUNEL),mouse skin,no apparent epidermal apoptosis
same,MIC S. pullorum 7913,S. pullorum 7913,>64 µM
